Like-named read-outs stand apart in the source and are kept apart here.
Legend:
NDM-1 = NDM-1 (Klebsiella pneumoniae, UniProt C7C422); assay: biochemical; assay type: biochemical; conditions: read-out: NDM-1 IC50
Method: Enzyme Activity: Determination of IC50
The Class B enzyme activities were measured in the presence of the test inhibitor in a fluorescence assay against a commercially available substrate consisting of a cephalosporin core linking 7-hydroxycoumarin to fluorescein (CCF2-FA). The enzyme (NDM-1, IMP-1 or VIM-1) and the substrate were diluted in 100 mM KH2PO4 buffer (pH 7) containing 0.005% Tween-20 and 10 μM ZnSO4. […] The test inhibitor was dissolved in dimethylsulfoxide and diluted 1:50 in the assay, resulting in a final concentration range of 20 uM to 0.00063 uM. In a 384-well microplate, the test inhibitor was incubated with the metallo-β-lactamase enzyme and the substrate for 2 hours at 25° C. Fluorescence at 460 nm following excitation at 405 nm was measured. The IC50 value was determined from semi-logarithmic plots of enzyme inhibition versus inhibitor concentration, with a curve generated using a 4-parameter fit.

IMP-1 = IMP-1 (Serratia marcescens, UniProt P52699); assay: biochemical; assay type: biochemical
VIM-1 = VIM-1 (Pseudomonas aeruginosa (strain ATCC 15692 / DSM 22644 / CIP 104116 / JCM 14847 / LMG 12228 / 1C / PRS 101 / PAO1), UniProt A0A0F7KYQ8); assay: Enzyme activity: determination of IC50, fluorescence assay with CCF2-FA substrate (VIM-1); assay type: biochemical
[1] = test system: Escherichia coli expressing NDM-1 (CLB30016); assay: Antibiotic potentiation activity: synergistic concentration (MITC95) with imipenem, OD600 growth; assay type: cell-based
Method: (§1) Antibiotic Potentiation Activity: Determination of Synergistic Concentration
(§2) The bacterial strains tested included the clinical strains Escherichia coli expressing NDM-1 (CLB30005, CLB30016), Serratia marcescens expressing IMP-1 (CL5741), and Klebsiella pneumoniae expressing VIM-1 (IHMA599644) Inhibitor activity was measured in the presence and absence of imipenem in a 384-well microplate.
(§3) The clinical strains CLB30016, CL5741 and IHMA599644 were grown on trypticase soy agar containing 5% sheep's blood. The clinical strain CLB30005 was grown on Mueller Hinton broth agar containing 8 ug/ml imipenem. The bacteria on agar plates were incubated at 35° C. with humidity overnight. The following day, individual colonies from each clinical strain were picked and resuspended in 5 ml saline to attain an OD600 of 0.14, 0.11, 0.15 and 0.13, for CLB30005, CLB30016, CL5741 and IHMA599644, respectively. These were further diluted 1:100 into 1.1×CAMHB and used to inoculate the test wells as described below.
(§4) Imipenem in 10 mM 3-(N-morpholino)propanesulfonic acid (MOPS, pH 7) was stored in single use aliquots at −80° C. […] On the day of the assay, 4 μl of antibiotic was added to 45 ul of bacteria followed by 1 μl of test compound and mixed by pipetting and with an orbital shaker. The concentration of antibiotic used in the assay was 4 μg/ml, or optionally 1 μg/ml. Microplates were covered and incubated at 35° C. for 22 hours to 24 hours. At the end of the incubation, absorbance was determined using a spectrophotometer.

[2] = test system: Klebsiella pneumoniae expressing VIM-1 (IHMA599644); assay: as above; assay type: cell-based
Method: as §1, §2, §3, §4

[3] = test system: Serratia marcescens expressing IMP-1 (CL5741); assay: as above; assay type: cell-based
Method: as §1, §2, §3, §4

[4] = fluorescence assay with CCF2-FA substrate
[5] = fluorescence assay with CCF2-FA substrate, read-out: IMP-1 IC50
[6] = CLB30016 (NDM-1), 95% inhibition of bacterial growth
[7] = IHMA599644 (VIM-1), 95% inhibition of bacterial growth
[8] = CL5741 (IMP-1), 95% inhibition of bacterial growth
[9] = NDM-1 enzyme, CCF2-FA fluorescence assay
[10] = IMP-1 enzyme, CCF2-FA fluorescence assay, read-out: IMP-1 IC50
[11] = VIM-1 enzyme, CCF2-FA fluorescence assay, read-out: VIM-1 IC50
[12] = Escherichia coli expressing NDM-1 (CLB30016), 95% growth inhibition
[13] = Klebsiella pneumoniae expressing VIM-1 (IHMA599644), 95% growth inhibition
[14] = Serratia marcescens expressing IMP-1 (CL5741), 95% growth inhibition
[15] = NDM-1 enzyme, CCF2-FA substrate
[16] = IMP-1 enzyme, CCF2-FA substrate, read-out: IMP-1 IC50
[17] = VIM-1 enzyme, CCF2-FA substrate, read-out: VIM-1 IC50
[18] = (CLB30016, NDM-1), 95% growth inhibition
[19] = Klebsiella pneumoniae IHMA599644 (VIM-1), 95% growth inhibition
[20] = Serratia marcescens CL5741 (IMP-1), 95% growth inhibition

Chain of IMP-1 (P52699 whole entry, looked up): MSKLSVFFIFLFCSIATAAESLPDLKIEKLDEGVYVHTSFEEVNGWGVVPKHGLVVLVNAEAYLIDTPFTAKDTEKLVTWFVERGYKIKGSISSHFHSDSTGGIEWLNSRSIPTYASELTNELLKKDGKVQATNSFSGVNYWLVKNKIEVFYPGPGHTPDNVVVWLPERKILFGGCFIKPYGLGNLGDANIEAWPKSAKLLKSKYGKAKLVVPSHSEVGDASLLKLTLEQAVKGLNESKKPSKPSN
Chain of NDM-1 (C7C422 whole entry, looked up, species assumed): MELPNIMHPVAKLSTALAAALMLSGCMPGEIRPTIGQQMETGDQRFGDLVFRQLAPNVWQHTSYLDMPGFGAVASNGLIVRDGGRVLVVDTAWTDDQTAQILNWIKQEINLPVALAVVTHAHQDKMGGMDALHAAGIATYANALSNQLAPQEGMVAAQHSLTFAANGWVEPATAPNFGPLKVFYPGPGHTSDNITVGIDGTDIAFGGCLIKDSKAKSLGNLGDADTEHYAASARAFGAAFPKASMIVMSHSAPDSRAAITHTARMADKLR

For `NCCN[C@H]1CC[C@@H](c2ccc(C(F)(F)F)c(S(N)(=O)=O)c2-c2nnn[nH]2)CC1` [Example 828, 3-((1s,4s)-4-((2-aminoethyl)amino)cyclohexyl)-2-(1H-tetrazol-5-yl)-6-(trifluoromethyl)benzenesulfonamide], which IC50 (NDM-1; [4]) is on record?
The IC50 was 8.29 nM.

And the IC50 (IMP-1; [5])?
Its IC50 is 72.9 nM.

And the IC50 (VIM-1; VIM-1 IC50, fluorescence assay with CCF2-FA substrate)?
Its IC50 is 73.3 nM.

What about the “Escherichia coli MITC95” value [1, 6] of the same compound?
The value was 0.7813 µM.

And the “Klebsiella pneumoniae MITC95” value [2, 7]?
Its value is 6.25 µM.

What about the “Serratia marcescens MITC95” value [3, 8] of the same compound?
Its value is 1.563 µM.

Which IC50 (NDM-1; [9]) does the source give for `NCc1ccc(-c2ccc(C(F)(F)F)c(S(N)(=O)=O)c2-c2nn[nH]n2)cc1` [Example 439, 4′-(aminomethyl)-2-(2H-tetrazol-5-yl)-4-(trifluoromethyl)-[1,1′-biphenyl]-3-sulfonamide] here?
The IC50 was 11.9 nM.

And the IC50 (IMP-1; [10])?
Its IC50 is 20.6 nM.

And the IC50 (VIM-1; [11])?
The IC50 was 4.05 nM.

And the “Escherichia coli MITC95” value [1, 12]?
The value was 0.7813 µM.

And the “Klebsiella pneumoniae MITC95” value [2, 13]?
The value was 1.563 µM.

What about the “Serratia marcescens MITC95” value [3, 14] of the same compound?
The value was 0.5859 µM.

With `NCC(CN)c1ccc(-c2cccc(S(N)(=O)=O)c2-c2nnn[nH]2)cc1` [Example 509, 4′-(1,3-Diaminopropan-2-yl)-2-(1H-tetrazol-5-yl)-[1,1′-biphenyl]-3-sulfonamide] as the compound, how does the IC50 (NDM-1; [15]) read?
The IC50 was 57.4 nM.

And the IC50 (IMP-1; [16])?
The IC50 was 929 nM.

What about the IC50 (VIM-1; [17]) of the same compound?
The IC50 was 396 nM.

What about the “Escherichia coli MITC95” value [1, 18] of the same compound?
The value was 1.563 µM.

What about the “Klebsiella pneumoniae MITC95” value [2, 19] of the same compound?
The value was 50 µM.

And the “Serratia marcescens MITC95” value [3, 20]?
Its value is 12.5 µM.

`Nc1ccc2cc(-c3ccc(C(F)(F)F)c(S(N)(=O)=O)c3-c3nnn[nH]3)ccc2n1` [Example 745, 3-(2-aminoquinolin-6-yl)-2-(1H-tetrazol-5-yl)-6-(trifluoromethyl)benzenesulfon-amide] was tested. Which IC50 (NDM-1; [4]) did it give?
Its IC50 is 1.05 nM.

And the IC50 (IMP-1; [5])?
Its IC50 is 1.5 nM.

What about the IC50 (VIM-1; fluorescence assay with CCF2-FA substrate, read-out: VIM-1 IC50) of the same compound?
The IC50 was 0.175 nM.

What about the “Escherichia coli MITC95” value [1, 6] of the same compound?
The value was 0.7813 µM.

What about the “Klebsiella pneumoniae MITC95” value [2, 7] of the same compound?
The value was 3.125 µM.

And the “Serratia marcescens MITC95” value [3, 8]?
Its value is 3.125 µM.

For `NS(=O)(=O)c1cccc(-c2ccc(CN3CCC(O)CC3)cc2)c1-c1nnn[nH]1` [Example 394, 4′-[(4-hydroxypiperidin-1-yl)methyl]-2-(1H-tetrazol-5-yl)biphenyl-3-sulfonamide], which IC50 (NDM-1; [9]) is on record?
The IC50 was 11.3 nM.

And the IC50 (IMP-1; [10])?
Its IC50 is 195 nM.

What about the IC50 (VIM-1; [11]) of the same compound?
Its IC50 is 658 nM.

And the “Escherichia coli MITC95” value [1, 12]?
Its value is 2.344 µM.

What about the “Klebsiella pneumoniae MITC95” value [2, 13] of the same compound?
Its value is over 200 µM.

What about the “Serratia marcescens MITC95” value [3, 14] of the same compound?
The value was 3.125 µM.

Which results are given for `NS(=O)(=O)c1c(C(F)(F)F)ccc(-c2ccc(CN3CCNCC3)cc2)c1-c1nnn[nH]1` [Example 718, 4′-(piperazin-1-ylmethyl)-2-(1H-tetrazol-5-yl)-4-(trifluoromethyl)biphenyl-3-sulfonamide]?
IC50 (NDM-1; [15]): 1.51 nM; IC50 (IMP-1; [16]): 2.4 nM; IC50 (VIM-1; [17]): 1.73 nM; Escherichia coli MITC95 [1, 18]: 12.5 µM; Klebsiella pneumoniae MITC95 [2, 19]: 25 µM; Serratia marcescens MITC95 [3, 20]: 6.25 µM

Which IC50 (NDM-1; [15]) does the source give for `NS(=O)(=O)c1cccc(-c2cnc3nc(C(F)(F)F)ccn23)c1-c1nnn[nH]1` [Example 650, 2-(1H-tetrazol-5-yl)-3-[7-(trifluoromethyl)imidazo[1,2-a]pyrimidin-3-yl]benzenesulfonamide] here?
The IC50 was 22.1 nM.

What about the IC50 (IMP-1; [16]) of the same compound?
Its IC50 is 1260 nM.

What about the IC50 (VIM-1; [17]) of the same compound?
The IC50 was 46.8 nM.

What about the “Escherichia coli MITC95” value [1, 18] of the same compound?
The value was 1.563 µM.

What about the “Klebsiella pneumoniae MITC95” value [2, 19] of the same compound?
The value was 50 µM.

What about the “Serratia marcescens MITC95” value [3, 20] of the same compound?
The value was 100 µM.

What does the source list for `NS(=O)(=O)c1cccc(-c2ccc(CNC[C@@]3(O)CCOC3)cc2)c1-c1nnn[nH]1` [Example 373, 4′-[({[(3S)-3-hydroxytetrahydrofuran-3-yl]methyl}amino)methyl]-2-(1H-tetrazol-5-yl)biphenyl-3-sulfonamide]?
IC50 (NDM-1; [9]): 11.3 nM; IC50 (IMP-1; [10]): 247 nM; IC50 (VIM-1; [11]): 241 nM; Escherichia coli MITC95 [1, 12]: 1.563 µM; Klebsiella pneumoniae MITC95 [2, 13]: 50 µM; Serratia marcescens MITC95 [3, 14]: 3.125 µM

`NC[C@H]1CC[C@@H](c2ccc(C(F)(F)F)c(S(N)(=O)=O)c2-c2nnn[nH]2)CC1` [Example 500, 3-(cis 4-(Aminomethyl)cyclohexyl)-2-(1H-tetrazol-5-yl)-6-(trifluoromethyl)benzenesulfonamide] was tested. Which IC50 (NDM-1; [15]) did it give?
The IC50 was 3.52 nM.

And the IC50 (IMP-1)?
The IC50 was 9.86 nM.

What about the IC50 (VIM-1; [17]) of the same compound?
Its IC50 is 12.2 nM.

And the “Escherichia coli MITC95” value [1, 18]?
Its value is 2.344 µM.

What about the “Klebsiella pneumoniae MITC95” value [2, 19] of the same compound?
Its value is 31.25 µM.

And the “Serratia marcescens MITC95” value [3, 20]?
Its value is 1.563 µM.

Source: patent US9708336B2, “Metallo-beta-lactamase inhibitors” (priority 2014, dated 2017)
